The values that follow come from US20240285808A1, “MOLECULAR PROBES FOR IN VIVO DETECTION OF ALDEHYDES” (The General Hospital Corporation, priority 2021, published 2024).

In series [1] the test system is lungs of bleomycin-injured mice. The series can be described thus: MR imaging of lung in bleomycin lung fibrosis model. Type of series: in vivo, mouse. The conditions noted are these: for ΔLMR in lungs, pair-wise comparison: 60 min post injection, individual mice ID 1-6. Here is the method:
C57Bl/6 adult male mice at 8 weeks of age (Jackson Laboratories, Barr Harbor, ME) received a single intratracheal dose of bleomycin, 1 units/kg body weight (50 μL total volume) (Fresenius Kabi, Lake Zurich, Il) as previously described in Desogere, P., et al. Optimization of a Collagen-Targeted PET Probe for Molecular Imaging of Pulmonary Fibrosis. J Nuc Med 58, 1991-1996 (2017).
Pair-Wise Comparison Between Gd-CHyd and Gd-9 in Lung Fibrosis Model:
A series of baseline images were first acquired. […] Then anesthesia was removed, and the mouse was allowed to awake and return to cage. After 4 hours, the same mouse was anesthetized again.
Pair-wise comparison between Mn-15 and Mn-17 in lung fibrosis model: The bleomycin-injured mice were first randomly imaged with Mn-15 or Mn-17 and then 24 hours later same imaging protocol was performed in the same mice with the other probe.
Animals were anesthetized with isoflurane (1-2%) and placed in a specially designed cradle with body temperature maintained at 37° C. The inhaled isoflurane level was adjusted to maintain a respiration rate of 60±5 breaths per minute. The tail vein was cannulated for intravenous (i.v.) delivery of the contrast agent while the animal was positioned in the scanner. Imaging was performed at 4.7 T using a small bore animal scanner with a custom-built volume coil. Mice were imaged with a dose of 100 μmol/kg from 30 mM stock solution of Gd or Mn complex.
For lung imaging, images were acquired with following sequences and parameters: 3D Ultrashort TE (3D-UTE, TR/TE/FA=4 ms/11.75 μs/16°, 0.6 mm isotropic spatial resolution, field of view (FOV) 75 mm×75 mm, one average, acquisition time=6.1 min) images were acquired prior to and dynamically post injection of contrast agent; Rapid Acquisition with Relaxation Enhancement (RARE, TR/TE/FA=1.5 s/8 ms/180°, 0.3 mm isotropic spatial resolution, field of view (FOV) 60 mm×50 mm, four average, acquisition time=6.1 min) and T1-weighted 3D Fast Low Angle Shot (FLASH, TR/TE/FA=10 ms/2.5 ms/30°, 0.6 mm isotropic spatial resolution, field of view (FOV) 60 mm×50 mm, one average, acquisition time=6.1 min) images were also acquired.
A total of 6 lung ROIs were defined on axial UTE images to obtain signal intensity (SI); ROIs in the dorsal muscle in each slice were also defined as reference; ROIs in the field of view without any tissue (air) were used to measure the variation in background signal. Then the lung-to muscle ratio (LMR) or contrast to noise ratio (CNR) was averaged from the 6 slices to calculate changes in LMR (ΔLMR) or CNR (ΔCNR) at each time point.
Gd-9 is a Gd-DOTA derivative with two hydrazine arms synthesized by amide coupling of two tBu-piperazin-1-ylcarbamate groups to 1,4,7,10-tetraazacyclododecane-1,4-bis(tBu-acetate)-4,10-bis(glutaric acid 1-tBu ester), followed by acid deprotection and gadolinium complexation. C57Bl/6 adult male mice at 8 weeks of age received a single intratracheal dose of bleomycin, 1 U/kg body weight (50 μL total volume) as previously described. Pair-wise imaging study of GdCHyd and Gd-9 was carried out in mice at day 14 post bleomycin injury on a 4.7 T MRI with a dose of 100 μmol/kg of each probe. For the treatment study, mice were imaged first at day 10 post bleomycin injury, then treated daily with oral gavage of either epigallocatechin gallate (EGCG, 100 mg/kg) or PBS (vehicle) for 11 days. At day 21 post bleomycin injury, the animals were imaged again. MRI consisted of T1-weighted UTE (TR/TE/flip angle=4 ms/0.011 ms/15°) images acquired prior to and up to 30 minutes following intravenous administration of Gd-9 ([…]). Following the second imaging session, animals were euthanized (60 minutes post injection), and lung tissues were removed for further analysis.

Series [2] in a line: Reaction rates with butyraldehyde by UV-visible measurements (Method D). Type of series: physicochemical. The conditions noted are these: for k (second order / condensation rate constant): Method d: butyraldehyde 1 mM, Mn complex 0.04-0.10 mM, 25° C., PBS, absorbance 220 nm. As for the experimental part:
Method D: Reaction Rates with UV-Visible Measurements.
The molar extinction coefficient at 220 nm (ε220) of Mn-15, Mn-16 and Mn-17 was calculated using Beer-Lambert Law: A220=ε220Cl; where A220 is the absorbance at wavelength 220 nm, C is the concentration (M), and l is the cell path length (cm).
The kinetics for reactions of Mn-15, Mn-16 and Mn-17 with butyraldehyde were monitored spectrophotometrically by measuring the change in absorbance at 220 nm. All reactions were carried out at 25° C. in PBS. In each experiment [butyraldehyde]=1 mM and the concentrations of Mn-complex, 0.04 mM, 0.06 mM, 0.08 mM, and 0.10 mM, were varied to estimate the rate law.
At the beginning of the reaction (t=0), the concentration of the starting Mn complex is a0 and the concentration of the aldehyde condensation product is zero. After time t the concentration of the product is x, and the concentration of remaining Mn complex starting material is a0-x. For a first-order reaction
where I is the constant of integration and kobs is the observed rate constant. The rate law and a corresponding second order rate constant k were estimated by plotting reaction velocity as a function of Mn—N(where Mn—N refers to Mn-15, Mn-16, or Mn-17) concentration.
The concentration of Mn—N-Ald (where Mn-Ald refers to the reaction product with either Mn-15, Mn-16, or Mn-17) can be estimated by the following equations, where A0 is the absorbance of Mn—N and A is the absorbance of reaction mixture after time t,
The novel Mn-PC2A derivatives (FIG. 1A) were synthesized in 6 steps from the pyclen macrocycle. Hydrazone formation kinetics with butyraldehyde as a model compound were measured by UV spectroscopy at 220 nm, 25° C., pH 7.4, PBS. Hydrazone hydrolysis kinetics were measured by HPLC with UV detection at 220 nm using excess formaldehyde to trap the liberated hydrazine and prevent the reverse reaction. Allysine-modified BSA (BSA-Ald, 17.4 mg/mL, […] aldehyde) as a soluble model protein or BSA (17.3 mg/mL, 16.8 μM aldehyde) and Mn-15 or Mn-17 (50-200 μM) were incubated at 37° C. for 3 hours, and 1/T1 was measured at 1.4 T, 37° C., and plotted vs concentration to obtain relaxivity. The protein bound probe was isolated by ultrafiltration and the relaxivity of the protein-bound fraction measured. All Mn concentrations were measured by ICP-MS. Liver fibrosis was induced in male C57BL/6 mice by oral gavage with CCl4 for 12 weeks, 2-3 times per week, while control mice received vehicle (olive oil). 3D FLASH images (TR/TE/FA=15 ms/2 ms/30°, 0.25 mm^3 spatial resolution) were acquired on a 4.7 T Bruker Biospec prior to and dynamically for 40 min p.i. of 100 μmol/kg Mn-15. Liver to muscle contrast to noise was calculated as CNR=(SILiver−SIMuscle)/SDAir where SI=signal intensity and SD=standard deviation in SI.

Where [3] appears, read: bleomycin injured mice (fibrotic lung).

Molecules are shown by their SMILES. “And” between values parts separate entries of the source, which are not always exact repeats. Identical values can stand only once.

Turning to `NN1CCN(C(=O)CCC(C(=O)[O-])N2CCN(CC(=O)[O-])CCN(CC(=O)[O-])CCN(C(CCC(=O)N3CCN(N)CC3)C(=O)[O-])CC2)CC1.[Gd+3]` (stereo not drawn) [Gd-9, cis-1,4-Gd-(CHyd)2], the “fold higher signal in fibrotic lung than GdCHyd” value in series [1] (bleomycin day 14, pairwise study, same time point post injection) came out at 3 fold. Besides, the “ΔCNR of lung, pair-wise comparison” value in series [1] (bleomycin injured mice, 25 min post injection, individual mice ID 1-4) is 3.7 and 4.3 and 3.0 and 4.0.

As for `NNC(CCC(=O)NCCCN1CCN(CC(=O)[O-])Cc2cccc(n2)CN(CC(=O)[O-])CC1)C(=O)O.[Mn+2]` (stereo not drawn) [Mn-15], in series [2], the “fold higher condensation (hydrazone formation) rate constant compared to Mn-17” value is recorded as 3 fold. Further, the “k (second order / condensation rate constant)” value in series [2] amounted to 12.1 M⁻¹ s⁻¹. In series [1], the “ΔLMR in lungs, pair-wise comparison” value is 0.06 and 0.11 and 0.18 (2×) and 0.08 and 0.15. For the same molecule, the “Change in lung to muscle ratio (ΔLMR)” value in series [1] (Bleomycin injured mice) worked out at 0.13; in series [1] (Naïve mice) it was 0.00. The “Washout T1/2 in lungs” value was 13.7 ± 1.4 min in series [1] (Naïve mice (normal lung)); 33.5 ± 5.1 min and 33.6 ± 5.1 min in series [1] (setting [3]).

For `NOC(CCC(=O)NCCCN1CCN(CC(=O)[O-])Cc2cccc(n2)CN(CC(=O)[O-])CC1)C(=O)O.[Mn+2]` (stereo not drawn) [Mn-16], in series [2], the “k (second order / condensation rate constant)” value is 2.5 M⁻¹ s⁻¹. For the same molecule, the “Change in lung to muscle ratio (ΔLMR)” value in series [1] (Bleomycin injured mice) is recorded as 0.18; in series [1] (Naïve mice) it was 0.00. The entries for the “Washout T1/2 in lungs” value in series [1] (Naïve mice (normal lung)) and in series [1] (setting [3]) were 17.9 ± 3.2 min and greater than 240 min, respectively.

For the molecule `NNCC(=O)NCCCN1CCN(CC(=O)[O-])Cc2cccc(n2)CN(CC(=O)[O-])CC1.[Mn+2]` [Mn-17], the “k (second order / condensation rate constant)” value in series [2] came to 4.6 M⁻¹ s⁻¹. The “ΔLMR in lungs, pair-wise comparison” value in series [1] was 0.09 and 0.18 (2×) and 0.27 and 0.15 (2×). In addition, the “Change in lung to muscle ratio (ΔLMR)” value was determined as 0.15 in series [1] (Bleomycin injured mice) and 0.00 in series [1] (Naïve mice). Moreover, the “Washout T1/2 in lungs” value stood at 15.1 ± 1.9 min in series [1] (Naïve mice (normal lung)) and 41.5 ± 6.3 min in series [1] (setting [3]).

Consider `CN(C)C(CCC(=O)NCCCN1CCN(CC(=O)[O-])Cc2cccc(n2)CN(CC(=O)[O-])CC1)C(=O)O.[Mn+2]` (stereo not drawn) [Mn-18], for which the figures for the “Change in lung to muscle ratio (ΔLMR)” value in series [1] (Bleomycin injured mice) and in series [1] (Naïve mice) were 0.04 and 0.01, respectively. Moreover, the “Washout T1/2 in lungs” value in series [1] (Naïve mice (normal lung)) was found to be 15.7 ± 1.8 min; in series [1] (setting [3]), 18.9 ± 2.0 min.
